Patent US4912036A, “Rapid differentiation of bacteria using cyclic polypeptide antibiotics” (Eastman Kodak Company, priority 1986, dated 1990)

Assays:
P. aeruginosa [1] = assay: DCIP reduction solution assay, ΔOD 620 nm; format: cell-based, Pseudomonas aeruginosa; details: P. aeruginosa (-) 5×10^7, gramicidin S 0.00625 mg/ml, 37° C.
Procedure: (§1) These examples illustrate the differentiation of bacteria using a tetrazolium salt and phenolic dye as the reducible compounds and two cyclic polypeptide antibiotics according to the present invention. The tetrazolium salt was 3-(4,5-dimethyl-2-thiazolyl) -2,5-diphenyl-2H-tetrazolium bromide (MTT) which forms a colored formazan dye when reduced. The phenolic dye was 2,6-dichloroindophenol (DCIP) which forms a colorless species when reduced.
(§2) Solutions of the reducible compounds were prepared with the following: HEPES buffer (3 ml, 0.05 molar, pH 7.5), TRITON X-100 nonionic surfactant (1% concentration), glucose (50 μl of 10% in water), tryptose (50 μl of a 10% solution in water), MTT (25 μl of 5 mg/ml methanol) or DCIP (25 μl of 3 mg/ml methanol) and phenazine methosultate ETA (25 μl of 3 mg/ml methanol).
(§3) Test solutions were prepared from the following: reducible compound solution from above (200 μl), 50 μl of either gramicidin S solution (6 mg/ml methanol and 9 ml of buffer) or tyrocidin solution (100 mg/ml methanol and 8 ml of buffer) and 50 μl of cell suspension. […] The change in optical density (ΔOD) was determined after 30 minutes at 37° C. at 540 nm for the MTT assay and at 620 nm for the DCIP assay using a commercially available spectrophotometer.

K. pneumoniae = assay: RIND VII reduction solution assay, ΔOD 635 nm; format: cell-based, Klebsiella pneumoniae; details: K. pneumoniae 7 × 10^7 /ml, antibiotic 10^-4 molar
S. aureus [2] = assay: MTT reduction solution assay, ΔOD 540 nm; format: cell-based, Staphylococcus aureus; details: S. aureus (+) 5×10^7, gramicidin S 0.00625 mg/ml, 37° C.
Procedure: as §1, §2, §3

S. aureus [3] = assay: Inhibition of RIND IX reduction by various cyclic polypeptide antibiotics; format: cell-based, Staphylococcus aureus; details: for Corrected % Inhibition: 635 nm
Procedure: The following materials were used in this example: stock solutions of RIND IX compound dispersion prepared as described above, glucose (10% in water), trimethyl-1,4-benzoquinone ETA (1.5 mg/ml methanol), and the antibiotics (1 mg/ml in dimethylsulfoxide). S. aureus cells were grown as described above. The final cell concentration in the assay mixture was about 4.3×10^8 cells/ml.
Test solutions were prepared by adding in the order: 1.2 ml of HEPES buffer, 50 μl glucose solution, 1.5 ml of RIND IX dispersion, 100 μl of antibiotic solution, 100 μl of cell suspension and 25 μl of ETA solution. Control solutions were prepared as described in Examples 2 and 3. Optical density readings (OD) were measured at 635 nm at 0 minutes and after incubation at 37° C. for 30 minutes for test and control solutions, and the change in density (ΔOD) was determined. Table VI below lists the results, expressed as corrected percent inhibition of the reduction of the RIND compound. The corrected percent inhibition is calculated by dividing the difference between the ΔOD obtained from the Cell Control without antibiotic and the ΔOD of the test solution, by ΔOD of the Cell Control without antibiotic. All readings were corrected by subtracting readings of the appropriate background Controls.
Solutions containing 2.9 ml HEPES, 50 μl of the antibiotic solution and 100 μl cell solution were incubated at 37° C. for 30 minutes, centrifuged for 10 minutes and decanted. The resulting pellet was then treated with 1.4 ml HEPES, 50 μl glucose solution, 1.5 ml RIND IX dispersion and 25 μl ETA solution, mixed well and the densities recorded as described above in Method 1. The corrected percent inhibition data was calculated as described in Method 1 above.

P. vulgaris [4] = assay: DCIP reduction solution assay, ΔOD 620 nm; format: cell-based, Proteus vulgaris; details: P. vulgaris (-) 5×10^7, gramicidin S 0.00625 mg/ml, 37° C.
Procedure: as §1, §2, §3

P. vulgaris [5] = assay: RIND VII reduction solution assay, ΔOD 635 nm; format: cell-based, Proteus vulgaris; details: P. vulgaris 7 × 10^7 /ml, antibiotic 10^-4 molar
Procedure: (§4) Bacterial suspensions were prepared by growing the cells in BHT broth to stationary phase overnight at 37° C. P. auruginosa was grown with agitation. About 40 ml of each overnight culture was centrifuged, decanted and washed once with 0.05 molar potassium phosphate buffer or 0.05 molar N-2-hydroxy-ethylpiperazine-N'-2-ethanesulfonic acid (HEPES) buffer, pH 7.8, and resuspended in buffer.
(§5) TERGITOL 7 anionic surfactant was used to differentiate viable bacteria according to the prior art method. Various concentrations of TERGITOL 7 surfactant were mixed with a 10% glucose solution (50 μl), 3-(4,5-dimethyl-2-thiazolyl)-2,5-diphenyl-2N-tetrazolium bromide (MTT) (25 μl at 5 mg/ml methanol) or a RIND VII dispersion (1.5 ml) and phenazine methosulfate ETA (25 μl at 3 mg/ml methanol). The volume of each test solution was brought to 3 ml with potassium phosphate buffer. A cell suspension (100 μl at about 10^8 cells/ml) was then added. The solutions were incubated at 37° C. for 15 and 30 minutes in the presence of either E. coli, a gram(-) bacterium, or S. aureus, a gram(+) bacterium. The amount of dye formed was then determined visually, and graded as follows: "O" indicates no dye formation, +/- indicates faint dye formation, 1+ indicates light dye formation, 2+ indicates moderate dye formation, 3+ indicates strong dye formation, and 4+ indicates very strong dye formation. […]

S. faecalis = assay: DCIP reduction solution assay, ΔOD 620 nm; format: cell-based, Streptococcus faecalis; details: S. faecalis (+) 5×10^7, gramicidin S 0.00625 mg/ml, 37° C.
Procedure: as §1, §2, §3

P. aeruginosa [6] = assay: RIND VII reduction solution assay, ΔOD 635 nm; format: cell-based, Pseudomonas aeruginosa; details: antibiotic 10^-4 molar
Procedure: as §4, §5

E. coli = assay: MTT reduction solution assay, ΔOD 540 nm; format: cell-based, Escherichia coli; details: E. coli (-) 5×10^7, gramicidin S 0.00625 mg/ml, 37° C.
Procedure: as §1, §2, §3

Substance: gramicidin S
- ΔOD, 620 nm after 30 Minutes (P. aeruginosa [1]): 1.040
- Corrected ΔOD (15 Minutes) (K. pneumoniae): > 2.0
- ΔOD, 540 nm after 30 Minutes (S. aureus [2]): 0.177
- inhibition of the ability of S. aureus to reduce the RIND compound, in words (S. aureus [3]; Methods 1 and 2): inhibits the ability of S. aureus, a gram-positive bacterium, to reduce the RIND compound
- Corrected % Inhibition (S. aureus [3]; Test Method 1 (antibiotic in the test solution), S. aureus about 4.3×10^8 cells/ml, 100 μl of 1 mg/ml antibiotic solution, 30 minutes at 37° C.): 95.6%
- Corrected % Inhibition (S. aureus [3]; Test Method 2 (cells preincubated with 50 μl antibiotic solution 30 minutes, centrifuged, pellet assayed), S. aureus): 80.0%
- ΔOD, 620 nm after 30 Minutes (P. vulgaris [4]): 1.029
- Corrected ΔOD (15 Minutes) (P. vulgaris [5]): > 2.0
- ΔOD, 620 nm after 30 Minutes (S. faecalis): 0.066
- Corrected ΔOD (15 Minutes) (P. aeruginosa [6]; P. aeruginosa 7 × 10^7 /ml): 0.107
- Corrected ΔOD (15 Minutes) (P. aeruginosa [6]; P. aeruginosa, cell concentration 1.5 × 10^8 /ml): > 2.0
- ΔOD, 540 nm after 30 Minutes (E. coli): 1.123
